Source: patent US20070299083A1, “6-Methoxy-8-[4-(1-(5-fluoro)-quinolin-8-yl-piperidin-4-yl)-piperazin-1-yl]-quinoline hydrochloric acid salts” (Wyeth, priority 2006, published 2007)

Assay: solubility in aqueous media
Assay type: physicochemical
Details: even in the presence of surfactants

solubility: ~0.4 µg/mL
Compound: COc1cc(N2CCN(C3CCN(c4ccc(F)c5cccnc45)CC3)CC2)c2ncccc2c1 [free base, 6-methoxy-8-[4-(1-(5-fluoro)-quinolin-8-yl-piperidin-4-yl)-piperazin-1-yl]-quinoline]
